In ChEMBL document CHEMBL1141141, “Novel, highly potent adenosine deaminase inhibitors containing the pyrazolo[3,4-d]pyrimidine ring system. Synthesis, structure-activity relationships, and molecular modeling studies” (J Med Chem, 2005):

Molecular target: T1, Adenosine deaminase (Bos taurus, UniProt P56658)
T1 sequence (P56658 whole entry): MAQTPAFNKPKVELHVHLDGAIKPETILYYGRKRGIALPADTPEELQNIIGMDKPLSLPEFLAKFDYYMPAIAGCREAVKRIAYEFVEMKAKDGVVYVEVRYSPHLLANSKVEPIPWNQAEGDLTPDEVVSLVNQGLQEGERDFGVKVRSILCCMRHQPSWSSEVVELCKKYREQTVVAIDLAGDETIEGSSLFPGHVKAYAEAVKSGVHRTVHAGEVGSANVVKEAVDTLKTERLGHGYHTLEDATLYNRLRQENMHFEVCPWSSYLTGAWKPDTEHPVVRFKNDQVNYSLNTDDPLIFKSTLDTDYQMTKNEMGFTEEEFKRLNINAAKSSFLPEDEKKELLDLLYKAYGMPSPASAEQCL

| Compound | Ki [nM] |
| --- | --- |
| CCCCCCCC[C@H](O)Cn1cc2c(N)ncnc2n1 | 37.5 |
| CCCCCCC(O)Cn1cc2c(N)ncnc2n1 (stereo not drawn) | 1 |
| CCCCCCCC[C@@H](O)Cn1cc2c(N)ncnc2n1 | 0.053 |
| CCCCCCCCC(O)Cn1cc2c(N)ncnc2n1 (stereo not drawn) | 0.28 |

Next, values leading:

| Ki [nM] | Compound |
| --- | --- |
| 4620 | NC1=NC=NC2C1C=NN2CCO (stereo not drawn) |
| 66.1 | CCCCCCC(C(C)O)N1N=CC2C(N)=NC=NC21 (stereo not drawn) |

Molecular target: T1, Adenosine deaminase
Assay: Inhibitory constant against bovine spleen Adenosine deaminase at >10e-5; n.a.=not active; call rule not given here
Type: tissue-based

| Compound | Ki |
| --- | --- |
| CCCCCCCCCCn1cc2c(N)nc(-c3ccccc3)nc2n1 | Not Active |
| CCCCCCn1cc2c(N)ncnc2n1 | Not Active |
| NC1=NC=NC2C1C=NN2Cc1ccccc1 (stereo not drawn) | Not Active |
| CCCCCCCCCCn1cc2c(NC(C)=O)ncnc2n1 | Not Active |
| NC1=NC=NC2C1C=NN2CCc1ccccc1 (stereo not drawn) | Not Active |
| Nc1ncnc2nn(CCc3ccccc3)cc12 | Not Active |
| CCCCCCCCCCCCn1cc2c(N)ncnc2n1 | Not Active |
| Nc1ncnc2nn(Cc3ccccc3)cc12 | Not Active |

Next, values leading:

| Ki | Compound |
| --- | --- |
| Not Active | CCCCCCC(O)CN1N=CC2C(N)=NC=NC21 (stereo not drawn) |
| Not Active | CCCCCCCCCCCN1N=CC2C(N)=NC=NC21 (stereo not drawn) |
| Not Active | CCCCCCCCCCN1N=CC2C(N)=NC=NC21 (stereo not drawn) |
| Not Active | CCCCCCCCCCCCN1N=CC2C(N)=NC=NC21 (stereo not drawn) |
